Tests used:
[1] = biological target: Histamine H3 receptor (Rattus norvegicus, UniProt Q9QYN8); assay: Displacement of [3H]-NAMH from rat histamine H3 receptor expressed in CHO cells; assay type: cell-based
[2] = biological target: T1, Histamine H3 receptor (Homo sapiens, UniProt Q9Y5N1); assay: biochemical
[3] = AUC in rat at 1 mg/kg, iv; assay type: ADME, organism-based; design: dose 1 mg/kg, route intravenous; details: plasma
[4] = biological target: Cytochrome P450 2C9 (Homo sapiens, UniProt P11712); assay: Inhibition of CYP2C9; assay type: ADME
Cytochrome P450 2C9, sequence (P11712 whole entry): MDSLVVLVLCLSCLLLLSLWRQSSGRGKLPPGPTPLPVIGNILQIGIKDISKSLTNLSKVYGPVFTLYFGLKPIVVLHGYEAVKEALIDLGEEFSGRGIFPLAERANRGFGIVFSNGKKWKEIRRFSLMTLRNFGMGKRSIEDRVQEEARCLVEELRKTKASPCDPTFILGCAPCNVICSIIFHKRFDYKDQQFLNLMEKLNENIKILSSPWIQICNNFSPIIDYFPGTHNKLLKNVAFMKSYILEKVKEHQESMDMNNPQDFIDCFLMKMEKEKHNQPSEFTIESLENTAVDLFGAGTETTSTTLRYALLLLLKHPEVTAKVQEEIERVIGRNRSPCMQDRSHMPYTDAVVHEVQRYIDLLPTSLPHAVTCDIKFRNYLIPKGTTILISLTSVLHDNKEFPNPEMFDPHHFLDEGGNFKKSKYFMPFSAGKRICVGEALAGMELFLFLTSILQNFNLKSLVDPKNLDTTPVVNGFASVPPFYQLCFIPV

[5] = Oral bioavailability in rat at 5 mg/kg; assay type: ADME, organism-based; details: in vivo
[6] = biological target: Cytochrome P450 2C19 (Homo sapiens, UniProt P33261); assay: Inhibition of CYP2C19; assay type: ADME
Cytochrome P450 2C19, sequence (P33261 whole entry): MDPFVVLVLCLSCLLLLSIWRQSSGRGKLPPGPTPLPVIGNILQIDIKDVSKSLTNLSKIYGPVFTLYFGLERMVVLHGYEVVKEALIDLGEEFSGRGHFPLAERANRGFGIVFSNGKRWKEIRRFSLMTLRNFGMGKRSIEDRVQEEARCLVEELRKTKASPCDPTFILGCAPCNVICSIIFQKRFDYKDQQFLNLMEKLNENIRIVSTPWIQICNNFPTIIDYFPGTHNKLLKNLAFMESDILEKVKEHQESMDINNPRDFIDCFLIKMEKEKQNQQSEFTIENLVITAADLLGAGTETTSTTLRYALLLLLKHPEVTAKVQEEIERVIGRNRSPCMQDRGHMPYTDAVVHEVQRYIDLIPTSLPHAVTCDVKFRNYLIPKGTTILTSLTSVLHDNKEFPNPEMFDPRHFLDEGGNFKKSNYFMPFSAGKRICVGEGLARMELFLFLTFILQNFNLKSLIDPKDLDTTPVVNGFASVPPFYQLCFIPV

[7] = Half life in human liver microsomes; assay type: ADME, Microsome
[8] = Ratio of drug level in brain to plasma in ip dosed rat after 1 hr; assay type: ADME, organism-based; details: read-out: BPR
[9] = AUC in rat at 5 mg/kg, po; assay type: ADME, organism-based; design: dose 5 mg/kg, route oral; details: plasma
[10] = Half life in rat at 1 mg/kg, iv; assay type: ADME, organism-based; design: dose 1 mg/kg, route intravenous; details: in vivo
[11] = Volume of distribution in rat at 1 mg/kg, iv; assay type: ADME, organism-based; design: dose 1 mg/kg, route intravenous; details: in vivo
[12] = biological target: Cytochrome P450 3A4 (Homo sapiens, UniProt P08684); assay: Inhibition of CYP3A4; assay type: ADME
Cytochrome P450 3A4, sequence (P08684 whole entry): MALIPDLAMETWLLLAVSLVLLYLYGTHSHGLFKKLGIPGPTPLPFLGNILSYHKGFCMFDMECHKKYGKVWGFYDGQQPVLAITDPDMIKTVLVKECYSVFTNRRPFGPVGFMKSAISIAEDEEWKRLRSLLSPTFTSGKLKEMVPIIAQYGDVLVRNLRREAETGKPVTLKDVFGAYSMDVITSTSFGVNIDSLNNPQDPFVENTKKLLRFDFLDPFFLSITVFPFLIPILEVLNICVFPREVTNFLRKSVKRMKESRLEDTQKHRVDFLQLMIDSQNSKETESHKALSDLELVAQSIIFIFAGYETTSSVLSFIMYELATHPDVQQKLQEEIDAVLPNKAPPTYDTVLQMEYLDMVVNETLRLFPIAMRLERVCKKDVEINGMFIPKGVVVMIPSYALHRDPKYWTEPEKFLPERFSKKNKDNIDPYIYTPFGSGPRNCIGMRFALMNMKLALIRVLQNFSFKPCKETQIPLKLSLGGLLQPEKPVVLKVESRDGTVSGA

[13] = Half life in dog liver microsomes; assay type: ADME, Canis lupus familiaris, Microsome
[14] = biological target: Cytochrome P450 2D6 (Homo sapiens, UniProt P10635); assay: Inhibition of CYP2D6; assay type: ADME
Cytochrome P450 2D6, sequence (P10635 whole entry): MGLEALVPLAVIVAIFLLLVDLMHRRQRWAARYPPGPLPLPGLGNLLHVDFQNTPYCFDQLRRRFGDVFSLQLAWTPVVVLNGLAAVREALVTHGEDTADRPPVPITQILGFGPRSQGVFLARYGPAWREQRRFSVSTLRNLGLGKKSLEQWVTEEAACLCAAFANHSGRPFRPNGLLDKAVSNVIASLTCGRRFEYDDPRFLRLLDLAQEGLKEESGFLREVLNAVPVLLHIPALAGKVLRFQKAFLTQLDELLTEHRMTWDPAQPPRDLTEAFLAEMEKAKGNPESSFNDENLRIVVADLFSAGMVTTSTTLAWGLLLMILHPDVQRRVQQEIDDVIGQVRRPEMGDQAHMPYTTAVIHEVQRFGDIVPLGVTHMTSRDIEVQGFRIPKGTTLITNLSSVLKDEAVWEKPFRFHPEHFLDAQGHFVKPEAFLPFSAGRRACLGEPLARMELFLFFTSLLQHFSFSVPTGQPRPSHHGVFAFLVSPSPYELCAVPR

[15] = Clearance in rat at 1 mg/kg, iv; assay type: ADME, organism-based; design: dose 1 mg/kg, route intravenous; details: in vivo
[16] = Cmax in rat at 5 mg/kg, po; assay type: ADME, organism-based; design: dose 5 mg/kg, route oral; details: in vivo
[17] = Half life in rat liver microsomes; assay type: ADME, Microsome
[18] = biological target: T2, Cytochrome P450 1A2 (Homo sapiens, UniProt P05177); assay: Inhibition of CYP1A2; assay type: ADME
T2 sequence (P05177 whole entry): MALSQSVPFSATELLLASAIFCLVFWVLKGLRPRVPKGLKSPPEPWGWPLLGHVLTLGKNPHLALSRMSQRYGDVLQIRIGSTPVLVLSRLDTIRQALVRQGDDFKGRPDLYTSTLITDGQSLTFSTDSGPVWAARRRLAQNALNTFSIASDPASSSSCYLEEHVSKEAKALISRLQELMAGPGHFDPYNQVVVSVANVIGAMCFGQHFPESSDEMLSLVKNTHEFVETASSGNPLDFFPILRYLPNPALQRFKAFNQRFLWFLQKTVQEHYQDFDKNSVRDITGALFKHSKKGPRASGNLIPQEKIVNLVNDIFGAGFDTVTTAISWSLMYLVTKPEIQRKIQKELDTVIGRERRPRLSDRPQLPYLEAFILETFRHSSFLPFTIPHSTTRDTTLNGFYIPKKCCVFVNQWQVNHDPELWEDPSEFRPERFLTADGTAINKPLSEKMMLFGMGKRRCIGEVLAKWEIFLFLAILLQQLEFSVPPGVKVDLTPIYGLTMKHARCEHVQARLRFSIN

[19] = biological target: T1, Histamine H3 receptor; assay: Inverse agonist activity at human histamine H3 receptor assessed as decrease of basal activity of [35S]GTPgammaS binding; assay type: functional
[20] = biological target: T1, Histamine H3 receptor; assay: Antagonist activity at recombinant human histamine H3 receptor assessed as inhibition of RAMH-induced [35S]GTPgammaS binding; assay type: functional
[21] = biological target: Sodium-dependent noradrenaline transporter (Homo sapiens) (UniProt P23975); assay: Inhibition of norepinephrine transporter at 10 uM
Sodium-dependent noradrenaline transporter (Homo sapiens), sequence (P23975 whole entry): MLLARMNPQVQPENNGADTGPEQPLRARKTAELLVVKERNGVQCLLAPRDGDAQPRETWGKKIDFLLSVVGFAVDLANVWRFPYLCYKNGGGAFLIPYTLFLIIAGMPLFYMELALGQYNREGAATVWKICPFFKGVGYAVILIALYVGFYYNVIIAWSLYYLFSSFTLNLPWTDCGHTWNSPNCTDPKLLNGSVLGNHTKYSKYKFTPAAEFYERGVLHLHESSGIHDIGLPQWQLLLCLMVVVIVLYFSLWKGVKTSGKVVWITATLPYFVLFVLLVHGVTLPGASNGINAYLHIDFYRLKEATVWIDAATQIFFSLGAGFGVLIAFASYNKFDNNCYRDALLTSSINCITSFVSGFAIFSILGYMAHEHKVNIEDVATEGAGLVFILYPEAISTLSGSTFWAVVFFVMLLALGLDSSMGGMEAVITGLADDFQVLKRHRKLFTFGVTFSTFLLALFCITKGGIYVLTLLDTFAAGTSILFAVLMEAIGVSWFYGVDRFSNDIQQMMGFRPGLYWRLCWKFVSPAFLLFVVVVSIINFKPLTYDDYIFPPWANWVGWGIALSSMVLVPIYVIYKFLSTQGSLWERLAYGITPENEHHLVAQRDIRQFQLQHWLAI

[22] = biological target: hERG (KCNH2) (Homo sapiens, UniProt Q12809); assay: Inhibition of human ERG at 10 uM by patch clamp assay
[23] = Inhibition of dihydropyridine site of calcium channel at 10 uM
[24] = biological target: Histamine H2 receptor (Homo sapiens) (UniProt P25021); assay: Inhibition of human histamine H2 receptor at 10 uM
Histamine H2 receptor (Homo sapiens), sequence (P25021 whole entry): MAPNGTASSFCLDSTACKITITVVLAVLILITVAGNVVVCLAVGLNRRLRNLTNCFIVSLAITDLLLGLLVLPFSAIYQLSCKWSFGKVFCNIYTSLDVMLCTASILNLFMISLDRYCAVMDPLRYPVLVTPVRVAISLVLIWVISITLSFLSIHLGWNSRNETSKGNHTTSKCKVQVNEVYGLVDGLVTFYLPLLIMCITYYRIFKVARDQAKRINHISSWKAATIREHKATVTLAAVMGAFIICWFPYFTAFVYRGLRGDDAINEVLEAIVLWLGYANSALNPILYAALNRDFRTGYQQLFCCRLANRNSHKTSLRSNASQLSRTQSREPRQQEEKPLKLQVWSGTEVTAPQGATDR

[25] = biological target: Histamine H4 receptor (Homo sapiens) (UniProt Q9H3N8); assay: Inhibition of human histamine H4 receptor at 10 uM
Histamine H4 receptor (Homo sapiens), sequence (Q9H3N8 whole entry): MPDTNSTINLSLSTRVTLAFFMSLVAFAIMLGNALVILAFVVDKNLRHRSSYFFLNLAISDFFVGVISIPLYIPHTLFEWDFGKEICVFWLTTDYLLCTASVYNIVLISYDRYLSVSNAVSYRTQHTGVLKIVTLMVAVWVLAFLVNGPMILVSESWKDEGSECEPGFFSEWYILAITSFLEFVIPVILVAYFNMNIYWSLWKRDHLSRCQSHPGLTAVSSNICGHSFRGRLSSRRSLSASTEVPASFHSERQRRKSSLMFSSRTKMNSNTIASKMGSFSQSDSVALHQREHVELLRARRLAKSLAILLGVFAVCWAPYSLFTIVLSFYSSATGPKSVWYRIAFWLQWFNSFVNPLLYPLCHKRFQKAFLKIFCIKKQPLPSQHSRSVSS

[26] = biological target: Histamine H1 receptor (Homo sapiens) (UniProt P35367); assay: Inhibition of human histamine H1 receptor at 10 uM
Histamine H1 receptor (Homo sapiens), sequence (P35367 whole entry): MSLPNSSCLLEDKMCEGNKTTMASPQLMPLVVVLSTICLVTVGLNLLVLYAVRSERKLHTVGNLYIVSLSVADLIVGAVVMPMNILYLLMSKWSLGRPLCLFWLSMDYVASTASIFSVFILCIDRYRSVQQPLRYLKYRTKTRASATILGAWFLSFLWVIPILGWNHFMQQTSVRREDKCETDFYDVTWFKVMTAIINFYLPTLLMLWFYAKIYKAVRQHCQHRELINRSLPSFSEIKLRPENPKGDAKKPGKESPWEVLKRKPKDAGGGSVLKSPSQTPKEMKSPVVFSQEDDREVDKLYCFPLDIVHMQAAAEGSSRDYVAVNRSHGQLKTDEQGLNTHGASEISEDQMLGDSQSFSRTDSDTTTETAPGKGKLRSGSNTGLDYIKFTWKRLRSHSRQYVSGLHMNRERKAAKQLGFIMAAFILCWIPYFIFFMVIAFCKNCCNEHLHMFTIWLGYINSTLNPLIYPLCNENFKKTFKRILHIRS

Histamine H3 receptor (Rattus norvegicus, UniProt Q9QYN8), sequence (Q9QYN8 whole entry): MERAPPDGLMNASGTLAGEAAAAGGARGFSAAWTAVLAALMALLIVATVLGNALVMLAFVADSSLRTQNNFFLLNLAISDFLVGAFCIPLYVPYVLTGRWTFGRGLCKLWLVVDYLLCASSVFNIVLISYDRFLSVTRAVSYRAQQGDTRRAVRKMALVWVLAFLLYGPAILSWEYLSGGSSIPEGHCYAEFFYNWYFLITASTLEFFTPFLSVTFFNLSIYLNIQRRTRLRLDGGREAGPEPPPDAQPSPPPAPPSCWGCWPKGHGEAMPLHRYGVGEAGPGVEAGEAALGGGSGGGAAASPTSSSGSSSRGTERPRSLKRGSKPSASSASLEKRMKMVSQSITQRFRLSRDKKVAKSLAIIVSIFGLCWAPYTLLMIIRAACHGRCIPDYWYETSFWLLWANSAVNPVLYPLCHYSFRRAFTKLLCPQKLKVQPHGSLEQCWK
T1 sequence (Q9Y5N1 whole entry): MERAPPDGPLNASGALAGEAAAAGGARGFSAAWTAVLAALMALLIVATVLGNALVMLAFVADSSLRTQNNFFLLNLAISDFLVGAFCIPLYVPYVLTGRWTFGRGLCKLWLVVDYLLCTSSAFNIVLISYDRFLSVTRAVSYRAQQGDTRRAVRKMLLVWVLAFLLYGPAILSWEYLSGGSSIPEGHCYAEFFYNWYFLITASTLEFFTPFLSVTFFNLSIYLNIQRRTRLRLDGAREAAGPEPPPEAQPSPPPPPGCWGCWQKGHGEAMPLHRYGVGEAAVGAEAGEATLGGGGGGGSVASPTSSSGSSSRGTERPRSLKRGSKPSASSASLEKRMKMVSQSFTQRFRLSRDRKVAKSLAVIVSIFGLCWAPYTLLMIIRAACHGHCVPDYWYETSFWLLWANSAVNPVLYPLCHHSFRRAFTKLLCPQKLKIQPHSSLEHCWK

Row | SMILES | Ki [1] | Ki [2] | IC50 [4] | IC50 [6] | IC50 [12] | IC50 [14] | IC50 [18] | further results
1 | CC(C)n1nc(-c2ccc(OCCCN3CCCCC3)cc2)c2sccc2c1=O | 19 nM | 1.9 nM |  |  |  |  |  | 
2 | Cn1nc(-c2ccc(OCCCN3CCCCCC3)cc2)c2ccccc2c1=O | 1.8 nM | 1.4 nM |  |  |  |  |  | 
3 | Cn1nc(-c2ccc(OCCCN3CCCCC3)cc2)c2ccccc2c1=O | 9 nM | 0.8 nM | > 30000 nM | > 30000 nM | > 30000 nM | > 30000 nM | > 30000 nM | AUC [3]: 402 ng·h/mL; bioavailability [5]: < 1%; half-life [7]: > 40 min; Kp at 1 h [8]: 2.98; AUC [9]: 14 ng·h/mL; half-life [10]: 18 min; Vd [11]: 1.36 L/kg; half-life [13]: > 40 min; clearance [15]: 52 mL/min/kg; Cmax [16]: 20 ng/mL; half-life [17]: > 40 min
4 | Cn1nc(-c2ccc(OCCCN3CCCCC3)cc2)c2c(c1=O)CCC2 | 4.3 nM | 0.5 nM | > 30000 nM | > 30000 nM | > 30000 nM | > 30000 nM | > 30000 nM | EC50 [19]: 0.8 nM; Kb [20]: 0.2 nM
5 | CN1N=C(c2ccc(OCCCN3CCCCC3)cc2)C2CCCC2C1=O (configuration not stated) | 9.4 nM | 2.3 nM | > 30000 nM | > 30000 nM | > 30000 nM | > 30000 nM | > 30000 nM | 
6 | Cn1nc(-c2ccc(OCCCN3CCCC3)cc2)c2ccccc2c1=O | 3.6 nM | 1.7 nM |  |  |  |  |  | 
7 | C[C@@H]1CCCN1CCCOc1ccc(-c2nn(C)c(=O)c3ccccc23)cc1 | 3.8 nM | 0.8 nM |  |  |  |  |  | 
8 | CCN(CC)CCCOc1ccc(-c2nn(C(C)C)c(=O)c3ccsc23)cc1 | 167 nM | 23 nM |  |  |  |  |  | 
9 | CC(C)n1nc(-c2ccc(OCCCN3CCCC3)cc2)c2sccc2c1=O | 7 nM | 4 nM |  |  |  |  |  | 
10 | C[C@@H]1CCCN1CCCOc1ccc(-c2nn(C)c(=O)c3c2CCC3)cc1 | 2 nM | 0.4 nM | > 30000 nM | > 30000 nM | > 30000 nM | > 30000 nM | > 30000 nM | AUC [3]: 182 ng·h/mL; bioavailability [5]: < 1%; inhibition [21]: 60%; inhibition at 10 µM [22]: 23%; inhibition [23]: 68%; Kp at 1 h [8]: 1.2; AUC [9]: 5.82 ng·h/mL; half-life [10]: 15.6 min; Vd [11]: 3.35 L/kg; clearance [15]: 163 mL/min/kg; EC50 [19]: 0.8 nM; inhibition [24]: < 30%; Kb [20]: 0.2 nM; Cmax [16]: 7 ng/mL; inhibition [25]: < 30%; inhibition [26]: < 30%
11 | Cn1nc(-c2ccc(OCCCN3CCCCC3)cc2)c2c(c1=O)CCCC2 | 4.5 nM | 1.5 nM | > 30000 nM | > 30000 nM | > 30000 nM | > 30000 nM | > 30000 nM | 
12 | CC(C)n1nc(-c2ccc(OCCCN3CCC[C@H]3C)cc2)c2sccc2c1=O | 8.3 nM | 2.6 nM | > 30000 nM | > 30000 nM | > 30000 nM | > 30000 nM | > 30000 nM | AUC [3]: 160 ng·h/mL; bioavailability [5]: < 1%; Kp at 1 h [8]: 4.07; half-life [10]: 18 min; Vd [11]: 2.98 L/kg; clearance [15]: 117 mL/min/kg; Cmax [16]: < 5 ng/mL
13 | Cn1nc(-c2ccc(OCCN3CCCCC3)cc2)c2ccccc2c1=O | > 1000 nM | 84 nM |  |  |  |  |  | 
14 | O=c1c2ccsc2c(-c2ccc(OCCCN3CCCCC3)cc2)nn1Cc1ccc(Cl)cc1 | 143 nM | 48 nM |  |  |  |  |  | 
15 | C[C@@H]1CCCN1CCCOc1ccc(-c2nn(Cc3ccc(Cl)cc3)c(=O)c3ccsc23)cc1 | 12 nM | 2.4 nM |  |  |  |  |  | 
16 | COC[C@H]1CCCN1CCCOc1ccc(-c2nn(C(C)C)c(=O)c3ccsc23)cc1 | > 3000 nM | 1120 nM |  |  |  |  |  | 
17 | CCCn1nc(-c2ccc(OCCCN3CCC(C)CC3)cc2)c2sccc2c1=O | 58 nM | 23 nM |  |  |  |  |  | 
18 | COC[C@@H]1CCCN1CCCOc1ccc(-c2nn(C(C)C)c(=O)c3ccsc23)cc1 | 1170 nM | 50 nM |  |  |  |  |  | 
19 | O=c1c2ccccc2c(-c2ccc(OCCCN3CCCCC3)cc2)nn1Cc1ccc(Cl)cc1 | 23 nM | 11 nM |  |  |  |  |  | 
20 | CCCn1nc(-c2ccc(OCCCN3CCC[C@H]3C)cc2)c2sccc2c1=O | 12 nM | 1.5 nM |  |  |  |  |  | 
21 | C[C@@H]1CCCN1CCCOc1ccc(C2=NN(C)C(=O)C3CCCC23)cc1 (some centres not stated) | 4.7 nM | 1.6 nM | > 30000 nM | > 30000 nM | > 30000 nM | > 30000 nM | > 30000 nM | 
22 | C[C@@H]1CCCN1CCCOc1ccc(-c2nn(Cc3ccc(Cl)cc3)c(=O)c3ccccc23)cc1 | 12 nM | 4.6 nM |  |  |  |  |  | 
23 | C[C@@H]1CCCN1CCCOc1ccc(-c2nn(C)c(=O)c3c2CCCC3)cc1 | 1.2 nM | 0.8 nM | > 30000 nM | > 30000 nM | > 30000 nM | > 30000 nM | > 30000 nM | 
